How the values were obtained:
[1] = test system: Human iPS cell line 253G1; experiment: Comparison of proliferating rate in media with each added component; assay type: cell-based; conditions: 7 days culture; NAC 8.2 mg and/or PVA 0.25 g per 100 mL basal medium; basal medium only = 1; n=3
Protocol: To 100 mL of the basal medium, either only 8.2 mg of N-acetyl-L-cysteine was added, only 0.25 g of polyvinyl alcohol was added, or 8.2 mg of N-acetyl-L-cysteine and 0.25 g of polyvinyl alcohol were added.
(§1) Human iPS cell line 253G1 was washed with PBS, then treated with an equivalent mixture solution of TrypLE Select (ThermoScientific) and 0.5 mM EDTA at 37° C. for 5 minutes to be dispersed into single-cells, and collected.
The culture was carried out in the basal medium with no additive prepared as a control, and in a medium to which only N-acetyl-L-cysteine was added, in a medium to which only polyvinyl alcohol was added, or in a medium to which N-acetyl-L-cysteine and polyvinyl alcohol were added (n=3).

[2] = test system: iPS cells; experiment: Measurement of intracellular ROS (DCFH-DA staining, flow cytometer); assay type: cell-based, human; conditions: versus medium with no additive (100%)
Protocol: In each of the basal medium with no additive and the albumin-added medium, cells were dispersed into single-cells, and after 1 hours, for each case, cells were fluorescently stained with DCFH-DA, and fluorescence intensity was measured using a flow cytometer.
Cells were cultured in the control media or in the medium to which the respective component had been added, then dispersed into single-cells. For each case, cells were fluorescently stained with DCFH-DA, and the fluorescence intensity was measured using a flow cytometer.

[3] = test system: Human iPS cell line 253G1; experiment: Confirmation of cell morphology by phase-contrast microscopy; assay type: cell-based; conditions: third day of culturing; additive in basal medium (albumin 1 g/100 mL; NAC 8.2 mg/100 mL); spindle = good condition, globular = bad
Protocol: as §1
The morphology of cells on the third day of culturing in the basal medium with no additive and in the albumin-added medium was observed by phase-contrast microscopy.
The morphology of cells on the third day of culturing in the control medium and in the N-acetyl-L-cysteine-added medium as a representative of 5 types of antioxidants was observed by phase-contrast microscopy.

[4] = test system: Human iPS cell line 253G1; experiment: Confirming cell attachment (crystal violet staining); assay type: cell-based; conditions: 7 days culture; 0.25 g polymer or 1 g albumin per 100 mL basal medium; iMatrix-511 coated 6-well plate; n=3
Protocol: as §1
The culture was carried out in the basal medium with no additive and an albumin-added medium prepared as controls, and in a medium to which polyvinyl alcohol and in a medium to which polyvinylpyrrolidone was added (n=3).
Each of the cultured cell was stained with crystal violet and the adherence of the cells was confirmed under phase-contrast microscopy.

[5] = Example 1, antioxidant added to 100 mL basal medium (NAC 163 mg, GSH 307 mg)

Molecule: CC(=O)N[C@@H](CS)C(=O)O [N-acetyl-L-cysteine]
- increase in relative proliferating rate [1]: approximately 1.4 fold
- decrease in intracellular ROS level [2, 5]: approximately 50%
- cell morphology [3]: spindle shape

Molecule: N[C@@H](CCC(=O)N[C@@H](CS)C(=O)NCC(=O)O)C(=O)O [reduced glutathione]
- decrease in intracellular ROS level [2, 5]: approximately 50%

Molecule: albumin
- decrease in intracellular ROS level ([2]; Comparative Example 1, 1 g albumin per 100 mL basal medium, 1 hour after dispersion into single cells): approximately 60%
- cell morphology [3]: spindle shape
- adherence of cells to culture container [4]: stained cells were confirmed all over the culture container

Source: patent US20220017871A1, “UNDIFFERENTIATED STATE-MAINTAINING CULTURE MEDIUM FOR PLURIPOTENT STEM CELLS” (Kanto Kagaku Kabushiki Kaisha, priority 2018, published 2022)
